Key:
[1] = system: HCV replicon (strain 1b) in HUH-7 cells; test: HCV replicon FRET assay; type: cell-based; conditions: Hepatitis C virus, Huh-7; Table 2; replicon assay variant and unit inferred; read-out: EC50
Source text: An HCV replicon whole cell system was established as described by Lohmann V, Korner F, Koch J, Herian U, Theilmann L, Bartenschlager R., Science 285(5424): 110-3 (1999). This system enabled us to evaluate the effects of our HCV Protease compounds on HCV RNA replication. Briefly, using the HCV strain 1b sequence described in the Lohmann paper (Assession number:AJ238799), an HCV cDNA was synthesized by Operon Technologies, Inc. (Alameda, Calif.), and the full-length replicon was then assembled in plasmid pGem9zf(+) (Promega, Madison, Wis.) using standard molecular biology techniques. The replicon consists of (i) the HCV 5′ UTR fused to the first 12 amino acids of the capsid protein, (ii) the neomycin phosphotransferase gene (neo), (iii) the IRES from encephalomyocarditis virus (EMCV), and (iv) HCV NS3 to NS5B genes and the HCV 3′ UTR. Plasmid DNAs were linearized with ScaI and RNA transcripts were synthesized in vitro using the T7 MegaScript transcription kit (Ambion, Austin, Tex.) according to manufacturer's directions. In vitro transcripts of the cDNA were transfected into the human hepatoma cell line, HUH-7. […] Resulting cell lines were characterized for positive and negative strand RNA production and protein production over time.
The HCV replicon FRET assay was developed to monitor the inhibitory effects of compounds described in the disclosure on HCV viral replication. HUH-7 cells, constitutively expressing the HCV replicon, were grown in Dulbecco's Modified Eagle Media (DMEM) (Gibco-BRL) containing 10% Fetal calf serum (FCS) (Sigma) and 1 mg/ml G418 (Gibco-BRL). Cells were seeded the night before (1.5×10^4 cells/well) in 96-well tissue-culture sterile plates. Compound and no compound controls were prepared in DMEM containing 4% FCS, 1:100 Penicillin/Streptomysin (Gibco-BRL), 1:100 L-glutamine and 5% DMSO in the dilution plate (0.5% DMSO final concentration in the assay). Compound/DMSO mixes were added to the cells and incubated for 4 days at 37° C. After 4 days, cells were first assessed for cytotoxicity using alamar Blue (Trek Diagnotstic Systems) for a CC50 reading. The toxicity of compound (CC50) was determined by adding 1/10th volume of alamar Blue to the media incubating the cells. After 4 h, the fluorescence signal from each well was read, with an excitation wavelength at 530 nm and an emission wavelength of 580 nm, using the Cytofluor Series 4000 (Perspective Biosystems). Plates were then rinsed thoroughly with Phosphate-Buffered Saline (PBS) (3 times 150 μl).

[2] = biological target: T1, NS3/4A protease complex (UniProt P27958); test: HCV NS3/4A protease complex enzyme assay (strain not stated); type: biochemical; conditions: Table 2; strain and unit inferred
T1 construct: fused on or other part: three-lysine solubilising tail at the C-terminus of NS4A; probably a His tag from pET21b (Ni-NTA purification)
T1 sequence (P27958 1027-1657, one chain of several): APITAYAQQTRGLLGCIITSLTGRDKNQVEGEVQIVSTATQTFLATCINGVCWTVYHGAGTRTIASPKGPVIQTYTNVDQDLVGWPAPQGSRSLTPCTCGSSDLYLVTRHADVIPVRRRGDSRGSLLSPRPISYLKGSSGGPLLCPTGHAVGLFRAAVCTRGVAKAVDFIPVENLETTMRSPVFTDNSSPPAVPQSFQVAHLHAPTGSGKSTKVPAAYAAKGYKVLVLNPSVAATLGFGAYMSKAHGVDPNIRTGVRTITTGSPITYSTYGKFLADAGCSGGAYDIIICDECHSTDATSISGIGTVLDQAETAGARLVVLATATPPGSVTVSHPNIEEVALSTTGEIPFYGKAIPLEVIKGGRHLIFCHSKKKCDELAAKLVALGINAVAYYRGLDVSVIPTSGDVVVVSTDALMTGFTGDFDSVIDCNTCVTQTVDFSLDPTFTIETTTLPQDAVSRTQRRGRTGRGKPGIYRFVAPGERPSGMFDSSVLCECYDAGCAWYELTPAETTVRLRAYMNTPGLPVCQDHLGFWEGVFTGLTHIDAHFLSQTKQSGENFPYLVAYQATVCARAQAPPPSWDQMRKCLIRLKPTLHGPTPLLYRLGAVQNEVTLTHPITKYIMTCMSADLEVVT
Source text: The purpose of this in vitro assay was to measure the inhibition of HCV NS3 protease complexes, derived from the BMS strain, H77 strain or J4L6S strain, as described above, by compounds of the present disclosure. This assay provides an indication of how effective compounds of the present disclosure would be in inhibiting HCV NS3 proteolytic activity.
In order to monitor HCV NS3/4A protease activity, an NS3/4A peptide substrate was used. The substrate was RET S1 (Resonance Energy Transfer Depsipeptide Substrate; AnaSpec, Inc. cat #22991)(FRET peptide), described by Taliani et al. in Anal. Biochem. 240(2):60-67 (1996). The sequence of this peptide is loosely based on the NS4A/NS4B natural cleavage site for the HCV NS3 protease except there is an ester linkage rather than an amide bond at the cleavage site. The peptide also contains a fluorescence donor, EDANS, near one end of the peptide and an acceptor, DABCYL, near the other end. The fluorescence of the peptide is quenched by […] resonance energy transfer (RET) between the donor and the acceptor, but as the NS3 protease cleaves the peptide the products are released from RET quenching and the fluorescence of the donor becomes apparent.
The peptide substrate was incubated with one of the three recombinant NS3/4A protease complexes, in the absence or presence of a compound of the present disclosure. The inhibitory effects of a compound were determined by monitoring the formation of fluorescent reaction product in real time using a Cytofluor Series 4000.
Assay buffer: 50 mM HEPES, pH 7.5; 0.15 M NaCl; 0.1% Triton; 15% Glycerol; 10 mM βME. Substrate: 2 μM final concentration (from a 2 mM stock solution in DMSO stored at −20° C.). HCV NS3/4A protease type 1a (1b), 2-3 nM final concentration (from a 5 μM stock solution in 25 mM HEPES, pH 7.5, 20% glycerol, 300 mM NaCl, 0.2% Triton-X100, 10 mM βME). For compounds with potencies approaching the assay limit, the assay was made more sensitive by adding 50 μg/ml Bovine Serum Albumin (Sigma) to the assay buffer and reducing the end protease concentration to 300 pM.
The assay was performed in a 96-well polystyrene black plate from Falcon. Each well contained 25 μl NS3/4A protease complex in assay buffer, 50 μl of a compound of the present disclosure in 10% DMSO/assay buffer and 25 μl substrate in assay buffer. A control (no compound) was also prepared on the same assay plate. The enzyme complex was mixed with compound or control solution for 1 min before initiating the enzymatic reaction by the addition of substrate. The assay plate was read immediately using the Cytofluor Series 4000 (Perspective Biosystems). The instrument was set to read an emission of […] at 25° C. Reactions were generally followed for approximately 15 min.
The percent inhibition was calculated with the following equation: […]
where δF is the change in fluorescence over the linear range of the curve. A non-linear curve fit was applied to the inhibition-concentration data, and the 50% effective concentration (IC50) was calculated by the use of Excel XLfit software using the equation, y=A+((B−A)/(1+((C/x)̂D))).

Structure (SMILES) | EC50 [1] [nM] | IC50 [2] [nM]
COc1ccc2c(O[C@@H]3C[C@H]4C(=O)N[C@]5(C(=O)NS(=O)(=O)C6CC6)C[C@H]5/C=C\CCCCC[C@H](Nc5nc(-c6ccc(OC(F)(F)F)cc6)cs5)C(=O)N4C3)nccc2c1 [Compound 3] | 6.2 | 5
COc1ccc2c(O[C@@H]3C[C@H]4C(=O)N[C@]5(C(=O)NS(=O)(=O)C6CC6)C[C@H]5/C=C\CCCCC[C@H](Nc5nc(-c6ccc(F)cc6F)cs5)C(=O)N4C3)nccc2c1 [Compound 4] | 13.8 | 11
COc1cnc(O[C@@H]2C[C@H]3C(=O)N[C@]4(C(=O)NS(=O)(=O)C5CC5)C[C@H]4/C=C\CCCCC[C@H](Nc4nc(-c5ccc(OC(F)(F)F)cc5)cs4)C(=O)N3C2)c2cc(Cl)ccc12 [Compound 6] | 8.7 | 2
COc1ccc(N[C@H]2CCCCC/C=C\[C@@H]3C[C@@]3(C(=O)NS(=O)(=O)C3CC3)NC(=O)[C@@H]3C[C@@H](Oc4ncc(OC)c5ccc(Cl)cc45)CN3C2=O)cn1 (single isomer, unassigned) [Compound 2] | 9.1 | 6
COc1ccc2c(O[C@@H]3C[C@H]4C(=O)N[C@]5(C(=O)NS(=O)(=O)C6CC6)C[C@H]5/C=C\CCCCC[C@H](Nc5nc(-c6ccccc6)cs5)C(=O)N4C3)nccc2c1 [Compound 5] | 8.1 | 3

Source: patent publication US20090285773A1, “Hepatitis C Virus Inhibitors” (Bristol-Myers Squibb Company, priority 2008, published 2009)
